Measurements reported in PMC2880850 (Journal of medicinal chemistry, 2010).
Entries after “also recorded” stand apart in the source; their conditions may differ.

Tests used:
BP3 cell line = assay: Apoptosis assay, Annexin V-FITC and propidium iodide, BP3; assay type: cell-based, human
[1] = system: MDA-MB-231 breast cancer cells; details: read-out: EC50 in killing MDA-MB-231 breast cancer cells; cited from earlier work
GST–Bcl-XL ΔTM protein = GST–Bcl-XL ΔTM protein (Homo sapiens, UniProt Q07817); details: read-out: IC50 binding to Bcl-XL in FPA assays; cited from earlier work
[2] = system: Bax/Bak double knockout MEF cells (MEF/DKO); assay: FITC-Annexin V/PI assay, Bax/Bak double knockout MEF; assay type: cell-based, mouse; details: for toxicity in MEF/DKO cells: 30 μM, FITC-Annexin V/PI
Bcl-XL = Bcl-XL (Homo sapiens, UniProt Q07817); assay: Isothermal Titration Calorimetry assay; assay type: binding; details: Kd ratio
[3] = Chemical stability at different temperatures; assay type: physicochemical
[4] = system: B6 transgenic mice overexpressing human Bcl-2 in B-cells; assay: Bcl-2 transgenic mice, spleen weight; assay type: in vivo, mouse; details: single i.p. injection at 42 mg/kg, 24 hours

Sequence of Bcl-XL (Q07817 whole entry): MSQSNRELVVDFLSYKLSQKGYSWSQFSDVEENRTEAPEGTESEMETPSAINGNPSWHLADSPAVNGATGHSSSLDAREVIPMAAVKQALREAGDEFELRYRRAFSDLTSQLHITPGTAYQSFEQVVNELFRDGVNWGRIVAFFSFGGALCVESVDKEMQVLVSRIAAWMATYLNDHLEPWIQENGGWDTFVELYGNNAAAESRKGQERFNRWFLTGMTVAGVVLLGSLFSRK
Sequence of GST–Bcl-XL ΔTM protein (Q07817 1-211 limits assumed, stated change not applied): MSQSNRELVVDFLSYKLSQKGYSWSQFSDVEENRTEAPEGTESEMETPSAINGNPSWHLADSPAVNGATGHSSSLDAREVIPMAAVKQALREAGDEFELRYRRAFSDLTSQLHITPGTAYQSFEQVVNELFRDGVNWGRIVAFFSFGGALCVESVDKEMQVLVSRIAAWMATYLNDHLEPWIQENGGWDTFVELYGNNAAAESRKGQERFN

Q: For `CN(C)CC[C@H](CSc1ccccc1)Nc1ccc(S(=O)(=O)NC(=O)c2ccc(N3CCN(Cc4ccccc4-c4ccc(Cl)cc4)CC3)cc2)cc1[N+](=O)[O-]` [ABT-737], which “apoptosis induction / cytotoxic activity against BP3 cell line” value (BP3 cell line) is on record?
A: no cytotoxic activity

Q: Which EC50 [1] does the source give for `Cc1cc2c(C(C)C)c(O)c(O)c(C=O)c2c(O)c1-c1c(C)cc2c(C(C)C)c(O)c(O)c(C=O)c2c1O` (single isomer, unassigned) [(−) 1, Gossypol] here?
A: ~2000 nM

Q: What about the IC50 (GST–Bcl-XL ΔTM protein) of the same molecule?
A: 480 nM

Q: With `Cc1cc2c(C(=O)NC[C@@H](C)c3ccccc3)c(O)c(O)cc2c(O)c1-c1c(C)cc2c(C(=O)NC[C@@H](C)c3ccccc3)c(O)c(O)cc2c1O` [Compound 14, (R)-1,1′,6,6′,7,7′-hexahydroxy-3,3′-dimethyl-N^5-((S)-2-phenylpropyl)-N^5′-((S)-2-phenylpropyl)-2,2′-binaphthyl-5,5′-dicarboxamide] as the molecule, how does the “toxicity in MEF/DKO cells” value [2] read?
A: almost equally effective in killing both MEF/WT and MEF/DKO

Q: Which “cytotoxicity against bax−/−bak−/− cells” value [2] does the source give for `Cc1cc2c(C(=O)NC[C@H](C)c3ccccc3)c(O)c(O)cc2c(O)c1-c1c(C)cc2c(C(=O)NC[C@H](C)c3ccccc3)c(O)c(O)cc2c1O` (single isomer, unassigned) [Compound 11] here?
A: less cytotoxicity against bax^−/−bak^−/− cells compared to compound 4; also recorded: little cytotoxicity

Q: And the “toxicity in MEF/DKO cells” value [2]?
A: slight toxicity

Q: What about the “inhibition of tumor growth” value (M2182 tumor xenografts; 5 mg/kg i.p. every 2 days, nine injections, both flanks) of the same molecule?
A: near complete inhibition of tumor growth

Q: And the tolerability of treatment (M2182 tumor xenografts; mouse, in vivo, ip)?
A: no apparent signs of toxicity

Q: What about the “times more potent than other isomers 12–14 in ITC assay” value (Bcl-XL) of the same molecule?
A: 4–20 times

Q: And the chemical stability [3]?
A: better chemical stability compared to other compounds (12–14)

Q: And the spleen weight reduction [4]?
A: more than 30%

Q: With `Cc1cc2c(C(C)C)c(O)c(O)c(C=O)c2c(O)c1-c1c(C)cc2c(C(C)C)c(O)c(O)c(C=O)c2c1O` (single isomer, unassigned) [(+) 1, Gossypol] as the molecule, how does the EC50 [1] read?
A: ~10000 nM

Q: For `Cc1cc2c(C(=O)NC[C@H](C)c3ccccc3)c(O)c(O)cc2c(O)c1-c1c(C)cc2c(C(=O)NC[C@H](C)c3ccccc3)c(O)c(O)cc2c1O` (single isomer, unassigned) [Compound 12], which spleen weight reduction [4] is on record?
A: weak in vivo activity
